In US20250223260A1, “Substituted Pyrrolidinyl And Piperidinyl Compounds And Related Methods Of Treatment” (Alkermes, Inc., priority 2022, published 2025):
pEC50: −log10 of the molar value.

Target: T1, human orexin-2 receptor (OX2R) (Homo sapiens, UniProt O43614)
T1 construct: expressed in transfected cells
T1 sequence (O43614 1-444): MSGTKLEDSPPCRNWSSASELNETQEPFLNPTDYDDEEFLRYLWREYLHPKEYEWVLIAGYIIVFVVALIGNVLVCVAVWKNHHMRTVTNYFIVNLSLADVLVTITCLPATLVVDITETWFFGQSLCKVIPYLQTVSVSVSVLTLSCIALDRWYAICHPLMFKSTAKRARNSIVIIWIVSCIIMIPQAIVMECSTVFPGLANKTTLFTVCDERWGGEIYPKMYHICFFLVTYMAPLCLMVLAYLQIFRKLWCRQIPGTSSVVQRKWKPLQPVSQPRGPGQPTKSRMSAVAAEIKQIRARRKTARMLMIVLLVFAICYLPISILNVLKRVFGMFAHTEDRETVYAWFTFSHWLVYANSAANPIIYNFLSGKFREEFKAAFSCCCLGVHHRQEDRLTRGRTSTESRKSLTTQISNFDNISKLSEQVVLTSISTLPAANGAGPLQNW
Assay: Human OX2R IP1 assay
Type: cell-based
Settings: T-Rex CHO cells stably overexpressing human OX2R; IP1 accumulation (HTRF); 1 hr at 37 degrees C
Experimental: T-Rex CHO cells stably overexpressing the human orexin-2 receptor (OX2R) are induced overnight with 1 μg/mL of doxycycline in a T225 flask. 24 hours post induction, cells are lifted with accutase and plated into a 384-well proxy plate at 30,000 cells/well. Cells are then treated with different test compounds in 1× stimulation buffer containing 10 mM Hepes, 1 mM CaCl2, 0.5 mM MgCl2, 4.2 mM KCl, 146 mM NaCl, 5.5 mM glucose, and 50 mM LiCl, pH 7.4, for 1 hr at 37 degrees C. Following incubation, the reaction is terminated by the addition of detection mix, which is composed of IP1-d2 and anti-IP1-cryptate diluted in lysis buffer as well as 1× stimulation buffer. The plates are allowed to incubate for 1 hour at room temperature and are then read in the EnVision® multimode plate reader, measuring inositol phosphate levels.
Cisbio IP1 is a cell-based functional assay quantifying the accumulation of inositol monophosphate (IP), a metabolite released as a result of orexin 2 receptor activation through the phospholipase C-Gq signaling pathway. This is a competitive immunoassay in which the IP1 produced by the cells upon receptor activation competes with the IP1 analog coupled to the d2 fluorophore (acceptor) for binding to an anti-IP1 monoclonal antibody labeled with Eu cryptate (donor). The measured HTRF-FRET based signal is inversely proportional to the IP1 concentration produced.
The EC50 values reported in Table 2 were obtained according to the human OX2R IP1 assay described above. Data are the mean EC50 values ±S.E.M.

Compared with `CS(=O)(=O)N[C@@H]1CCN(C(=O)C2CC2)C[C@@H]1OC[C@H]1CC[C@@H](c2ccccc2)CC1` (single isomer, unassigned) [Compound 37, N-[cis-1-cyclopropanecarbonyl-3-[(cis-4-phenylcyclohexyl)methoxy]piperidin-4-yl]methanesulfonamide], `CS(=O)(=O)N[C@H]1CCN(C(=O)C2CCC2)C[C@H]1OCC1CCC(c2ccccc2)CC1` (single isomer, unassigned) [Compound 65] is higher in pEC50: 5.00 to 7.00 for the first, greater than 7.00 for the second.

`CC(C)(O)C(=O)N1CC[C@@H](NS(C)(=O)=O)[C@@H](OC[C@H]2CC[C@@H](c3ccccc3)CC2)C1` (single isomer, unassigned) [Compound 38] and `COC(=O)N1CC[C@H](NS(C)(=O)=O)[C@H](OC[C@H]2CC[C@@H](c3ccccc3)CC2)C1` (single isomer, unassigned) [Compound 40] fall in the same range of pEC50: 5.00 to 7.00 for the first, 5.00 to 7.00 for the second.

First: CS(=O)(=O)N[C@H]1CCN(c2ncco2)C[C@H]1OC[C@H]1CC[C@@H](c2ccccc2)CC1 (single isomer, unassigned) [Compound 39, N-(cis-1-(oxazol-2-yl)-3-((cis-4-phenylcyclohexyl)methoxy)piperidin-4-yl)methanesulfonamide]
Second: Cn1ccnc1N1CC[C@H](NS(C)(=O)=O)[C@H](OCC2CCC(c3ccccc3)CC2)C1 (single isomer, unassigned) [Compound 53]
The pEC50 of the first is higher: 5.00 to 7.00 for the first, less than 5.00 for the second. The first is the more potent here.

First: COC(=O)N1CC[C@@H](NS(C)(=O)=O)[C@@H](OC[C@H]2CC[C@@H](c3ccccc3)CC2)C1 (single isomer, unassigned) [Compound 41]
Second: CC1(C(=O)N2CC[C@H](NS(C)(=O)=O)[C@H](OCC3CCC(c4ccccc4)CC3)C2)COC1 (single isomer, unassigned) [Compound 45]
The pEC50 of the first is lower: less than 5.00 for the first, 5.00 to 7.00 for the second.

Going from `CS(=O)(=O)N[C@@H]1CCN(C(=O)C2(O)CCC2)C[C@@H]1OC[C@H]1CC[C@@H](c2ccccc2)CC1` (single isomer, unassigned) [Compound 43] to `CS(=O)(=O)N[C@@H]1CCN(C(=O)C2(O)CCC2)C[C@@H]1OCC1CCC(c2ccccc2)CC1` (single isomer, unassigned) [Compound 44], the pEC50 falls from greater than 7.00 to less than 5.00.

First: CC1(C(=O)N2CC[C@@H](NS(C)(=O)=O)[C@@H](OCC3CCC(c4ccccc4)CC3)C2)COC1 (single isomer, unassigned) [Compound 46]
Second: CS(=O)(=O)N[C@@H]1CCN(C(=O)C2(F)CC2)C[C@@H]1OC[C@H]1CC[C@@H](c2ccccc2)CC1 (single isomer, unassigned) [Compound 67]
The pEC50 of the first is lower: less than 5.00 for the first, greater than 7.00 for the second.

First: Cn1ccc(N2CC[C@H](NS(C)(=O)=O)[C@H](OC[C@H]3CC[C@@H](c4ccccc4)CC3)C2)n1 (single isomer, unassigned) [Compound 47]
Second: Cn1ccc(N2CC[C@@H](NS(C)(=O)=O)[C@@H](OC[C@H]3CC[C@@H](c4ccccc4)CC3)C2)n1 (single isomer, unassigned) [Compound 48]
The pEC50 of the first is higher: 5.00 to 7.00 for the first, less than 5.00 for the second.

First: CS(=O)(=O)N[C@H]1CCN(C(=O)C2(F)CCC2)C[C@H]1OCC1CCC(c2ccccc2)CC1 (single isomer, unassigned) [Compound 49]
Second: CS(=O)(=O)N[C@@H]1CCN(C(=O)C2(F)CCC2)C[C@@H]1OCC1CCC(c2ccccc2)CC1 (single isomer, unassigned) [Compound 50]
The pEC50 of the first is higher: greater than 7.00 for the first, 5.00 to 7.00 for the second.

`CS(=O)(=O)N[C@H]1CCN(C2COC2)C[C@H]1OC[C@H]1CC[C@@H](c2ccccc2)CC1` (single isomer, unassigned) [Compound 51] and `CS(=O)(=O)N[C@@H]1CCN(C2COC2)C[C@@H]1OC[C@H]1CC[C@@H](c2ccccc2)CC1` (single isomer, unassigned) [Compound 52] cannot be ordered by pEC50: less than 5.00 for the first, less than 5.00 for the second.

`Cn1ccnc1N1CC[C@@H](NS(C)(=O)=O)[C@@H](OC[C@H]2CC[C@@H](c3ccccc3)CC2)C1` (single isomer, unassigned) [Compound 54] and `Cn1cnc(N2CC[C@H](NS(C)(=O)=O)[C@H](OCC3CCC(c4ccccc4)CC3)C2)c1` (single isomer, unassigned) [Compound 59] fall in the same range of pEC50: 5.00 to 7.00 for the first, 5.00 to 7.00 for the second.

First: CS(=O)(=O)N[C@H]1CCN(c2cccnn2)C[C@H]1OC[C@H]1CC[C@@H](c2ccccc2)CC1 (single isomer, unassigned) [Compound 55]
Second: CS(=O)(=O)N[C@@H]1CCN(c2cccnn2)C[C@@H]1OC[C@H]1CC[C@@H](c2ccccc2)CC1 (single isomer, unassigned) [Compound 56]
The pEC50 of the first is higher: greater than 7.00 for the first, 5.00 to 7.00 for the second.

`CS(=O)(=O)N[C@H]1CCN(CC2COC2)C[C@H]1OC[C@H]1CC[C@@H](c2ccccc2)CC1` (single isomer, unassigned) [Compound 57] and `CS(=O)(=O)N[C@@H]1CCN(CC2COC2)C[C@@H]1OC[C@H]1CC[C@@H](c2ccccc2)CC1` (single isomer, unassigned) [Compound 58] cannot be ordered by pEC50: less than 5.00 for the first, less than 5.00 for the second.

`Cn1cnc(N2CC[C@@H](NS(C)(=O)=O)[C@@H](OC[C@H]3CC[C@@H](c4ccccc4)CC3)C2)c1` (single isomer, unassigned) [Compound 60] and `C[C@@H](C1COC1)N1CC[C@H](NS(C)(=O)=O)[C@H](OCC2CCC(c3ccccc3)CC2)C1` (single isomer, unassigned) [Compound 61] cannot be ordered by pEC50: less than 5.00 for the first, less than 5.00 for the second.

`C[C@@H](C1COC1)N1CC[C@@H](NS(C)(=O)=O)[C@@H](OCC2CCC(c3ccccc3)CC2)C1` (single isomer, unassigned) [Compound 62] and `C[C@H](C1COC1)N1CC[C@H](NS(C)(=O)=O)[C@H](OCC2CCC(c3ccccc3)CC2)C1` (single isomer, unassigned) [Compound 63] cannot be ordered by pEC50: less than 5.00 for the first, less than 5.00 for the second.

Compared with `C[C@H](C1COC1)N1CC[C@@H](NS(C)(=O)=O)[C@@H](OCC2CCC(c3ccccc3)CC2)C1` (single isomer, unassigned) [Compound 64], `CS(=O)(=O)N[C@@H]1CCN(C(=O)C2CCC2)C[C@@H]1OCC1CCC(c2ccccc2)CC1` (single isomer, unassigned) [Compound 66] is higher in pEC50: less than 5.00 for the first, 5.00 to 7.00 for the second. The second is the more potent here.

`CS(=O)(=O)N[C@@H]1CCN(C(=O)C2(F)CC2)C[C@@H]1OCC1CCC(c2ccccc2)CC1` (single isomer, unassigned) [Compound 68] and `COC1(C(=O)N2CC[C@H](NS(C)(=O)=O)[C@H](OC[C@H]3CC[C@@H](c4ccccc4)CC3)C2)CCC1` [Compound 42] fall in the same range of pEC50: 5.00 to 7.00 for the first, 5.00 to 7.00 for the second.

Compared with `CS(=O)(=O)N[C@H]1CCN(CC2(F)CCC2)C[C@H]1OCC1CCC(c2ccccc2)CC1` (single isomer, unassigned) [Compound 69], `CS(=O)(=O)N[C@@H]1CCN(CC2(F)CCC2)C[C@@H]1OCC1CCC(c2ccccc2)CC1` (single isomer, unassigned) [Compound 70] is lower in pEC50: 5.00 to 7.00 for the first, less than 5.00 for the second. The first is the more potent here.
